Assay results from ChEMBL document CHEMBL1151063, “Synthesis and antibacterial activity of 2-functionalized-vinyl 1-methylcarbapenems and related compounds” (1993).
Converted amounts (≈) assume the structure as drawn.

Experiments:
Format in all cases: functional
Staphylococcus aureus [1] = assay: Antibacterial activity against Staphylococcus aureus FDA JC-1
Pseudomonas aeruginosa = assay: Antibacterial activity against Pseudomonas aeruginosa SR24
Escherichia coli = assay: Antibacterial activity against Escherichia coli NIHJ JC-2
Enterococcus faecalis = assay: Antibacterial activity against Streptococcus faecalis SR 1004
Enterobacter cloacae = assay: Minimum inhibitory concentration for antibacterial activity against Enterobacter cloacae AI 3047
Serratia marcescens = assay: Minimum inhibitory concentration for antibacterial activity against Serratia marcescens A13880
Proteus vulgaris [2] = assay: Minimum inhibitory concentration for antibacterial activity against Proteus vulgaris CN-329, activity expressed as MIC
Staphylococcus aureus [3] = assay: Minimum inhibitory concentration for antibacterial activity against low resistant group of methicillin-resistant Staphylococcus aureus SR-3131(LR)
Staphylococcus aureus [4] = assay: Minimum inhibitory concentration for antibacterial activity against high resistant group of methicillin-resistant Staphylococcus aureus SR-3626(HR)
Proteus vulgaris [5] = assay: Minimum inhibitory concentration for antibacterial activity against Proteus vulgaris CN-329

Structure (SMILES)	MIC (Staphylococcus aureus [1]) [µg/mL]	MIC (Pseudomonas aeruginosa) [µg/mL]	MIC (Escherichia coli) [µg/mL]	MIC (Enterococcus faecalis) [µg/mL]	MIC (Enterobacter cloacae) [µg/mL]	MIC (Serratia marcescens) [µg/mL]	MIC (Proteus vulgaris [2]) [µg/mL]	MIC (Staphylococcus aureus [3]) [µg/mL]	MIC (Staphylococcus aureus [4]) [µg/mL]	MIC (Proteus vulgaris [5]) [µg/mL]
C[C@@H](O)[C@H]1C(=O)N2C(C(=O)[O-])=C(C[n+]3ccccc3)[C@H](C)[C@H]12	< 0.006	1.6 (≈ 5.29 µM)	0.1 (≈ 0.331 µM)	6.3 (≈ 20.8 µM)	0.2 (≈ 0.662 µM)	1.6 (≈ 5.29 µM)	0.4 (≈ 1.32 µM)	0.1 (≈ 0.331 µM)	50 (≈ 165 µM)	
C[C@@H](O)[C@H]1C(=O)N2C(C(=O)[O-])=C(C[n+]3cccc(N)c3)[C@H](C)[C@H]12	0.006 (≈ 0.0189 µM)	1.6 (≈ 5.04 µM)	0.2 (≈ 0.63 µM)	6.3 (≈ 19.9 µM)						
C[C@@H](O)[C@H]1C(=O)N2C(C(=O)[O-])=C(/C=C/C[n+]3ccccc3)[C@H](C)[C@H]12	0.006 (≈ 0.0183 µM)	1.6 (≈ 4.87 µM)	0.05 (≈ 0.152 µM)	0.4 (≈ 1.22 µM)	0.2 (≈ 0.609 µM)	0.8 (≈ 2.44 µM)		0.05 (≈ 0.152 µM)	50 (≈ 152 µM)	0.2 (≈ 0.609 µM)
C[C@@H](O)[C@H]1C(=O)N2C(C(=O)[O-])=C(C[n+]3ccc(C(N)=O)cc3)[C@H](C)[C@H]12	0.02 (≈ 0.0579 µM)	1.6 (≈ 4.63 µM)	0.4 (≈ 1.16 µM)	25 (≈ 72.4 µM)						
C[C@@H](O)[C@H]1C(=O)N2C(C(=O)[O-])=C(C[n+]3ccc(-c4cnco4)cc3)[C@H](C)[C@H]12	0.01 (≈ 0.0271 µM)	1.6 (≈ 4.33 µM)	0.2 (≈ 0.541 µM)	6.3 (≈ 17.1 µM)						
C[C@@H](O)[C@H]1C(=O)N2C(C(=O)[O-])=C(C[n+]3cccc(C(N)=O)c3)[C@H](C)[C@H]12	0.02 (≈ 0.0579 µM)	1.6 (≈ 4.63 µM)	0.4 (≈ 1.16 µM)	25 (≈ 72.4 µM)						
Cc1ccc[n+](CC2=C(C(=O)[O-])N3C(=O)[C@H]([C@@H](C)O)[C@H]3[C@H]2C)c1	0.01 (≈ 0.0316 µM)	1.6 (≈ 5.06 µM)	0.2 (≈ 0.632 µM)	12.5 (≈ 39.5 µM)						
C[C@@H](O)[C@H]1C(=O)N2C(C(=O)O)=C(SCCNC=N)C[C@H]12 [IMIPENEM ANHYDROUS]	0.006 (≈ 0.02 µM)	1.6 (≈ 5.34 µM)	0.1 (≈ 0.334 µM)	1.6 (≈ 5.34 µM)	0.4 (≈ 1.34 µM)	0.8 (≈ 2.67 µM)		0.05 (≈ 0.167 µM)	50 (≈ 167 µM)	0.4 (≈ 1.34 µM)

Second part, led by results:

MIC (Staphylococcus aureus [1]) [µg/mL]	MIC (Pseudomonas aeruginosa) [µg/mL]	MIC (Escherichia coli) [µg/mL]	MIC (Enterococcus faecalis) [µg/mL]	Structure (SMILES)	MIC (Enterobacter cloacae) [µg/mL]	MIC (Serratia marcescens) [µg/mL]	MIC (Proteus vulgaris [2]) [µg/mL]	MIC (Staphylococcus aureus [3]) [µg/mL]	MIC (Staphylococcus aureus [4]) [µg/mL]	MIC (Proteus vulgaris [5]) [µg/mL]
0.02	50	0.2	0.8	C[C@@H]([O-])[C@H]1C(=O)N2C(C(=O)[O-])=C(/C=C/C[N+]34CCC(CC3)CC4)[C@H](C)[C@H]12.[Na+]						
0.02	25	0.1	0.8	C[C@@H]([O-])[C@H]1C(=O)N2C(C(=O)[O-])=C(/C=C/Cn3cc[n+]4ccccc34)[C@H](C)[C@H]12.[Na+]						
0.1 (≈ 0.305 µM)	50 (≈ 152 µM)	1.6 (≈ 4.87 µM)	6.3 (≈ 19.2 µM)	C[C@@H](O)[C@H]1C(=O)N2C(C(=O)[O-])=C(/C=C/c3cccc[n+]3C)[C@H](C)[C@H]12						
0.02 (≈ 0.0584 µM)	6.3 (≈ 18.4 µM)	0.1 (≈ 0.292 µM)	0.8 (≈ 2.34 µM)	C/C(=C\C1=C(C(=O)[O-])N2C(=O)[C@H]([C@@H](C)O)[C@H]2[C@H]1C)C[n+]1ccccc1						
0.02	50	0.2	1.6	C[C@@H](O)[C@H]1C(=O)N2C(C(=O)[O-])=C(/C=C/COC(N)=O)[C@H](C)[C@H]12.[Na+]						
0.01	12.5	0.2	0.4	C[C@@H]([O-])[C@H]1C(=O)N2C(C(=O)[O-])=C(/C=C/CSc3cc[n+](C)cc3)[C@H](C)[C@H]12.[Na+]						
0.05 (≈ 0.152 µM)	25 (≈ 76.1 µM)	0.4 (≈ 1.22 µM)	1.6 (≈ 4.87 µM)	C[C@@H](O)[C@H]1C(=O)N2C(C(=O)[O-])=C(/C=C/c3cc[n+](C)cc3)[C@H](C)[C@H]12						
0.02	100	3.1	1.6	C[C@@H](O)[C@H]1C(=O)N2C(C(=O)[O-])=C(/C=C/CSc3nncs3)[C@H](C)[C@H]12.[Na+]						
0.01 (≈ 0.0305 µM)	25 (≈ 76.1 µM)	0.1 (≈ 0.305 µM)	0.2 (≈ 0.609 µM)	C[C@@H](O)[C@H]1C(=O)N2C(C(=O)[O-])=C(/C=C/c3ccc[n+](C)c3)[C@H](C)[C@H]12						
